Results from paper doi:10.1101/2021.03.27.437323v2 (biorxiv, 2021).

Biological target: SARS-CoV-2 main protease (M^pro; NSP5; 3CL M^pro) (Severe acute respiratory syndrome coronavirus 2, UniProt P0DTD1)
Test: biochemical
Settings: read-out: % Residual activity at 20 µM

SMILES | remaining activity at 20 µM [%]
Cc1ccccc1CC(=O)NC(Cc1ccccc1)c1nc2ccccc2[nH]1 (stereo not drawn) [MCULE-2322094178] | 83
O=C(NC(Cc1ccccc1)c1nc2ccccc2[nH]1)c1cccc(F)c1 (stereo not drawn) [MCULE-6499664919] | 83
COc1ccc(-c2[nH]ncc2CNCc2ccccc2C)cc1 [MCULE-5715268546] | 83
